ChEMBL document CHEMBL1121865, “Epimeric cis-decahydroquinoline-5-carboxylic acids: effects on gamma-aminobutyric acid uptake and receptor binding in vitro” (J Med Chem, 1981)

Assays:
[1] = molecular target: T1, GABA-A receptor; anion channel (Rattus norvegicus) (UniProt O09028+P15431+P18506+P18508+P19969+P20236+P23574+P23576+P28471+P28473+P30191+P62813+P63079+P63138+Q91ZM7+Q9ES14); details: Membrane, 0.01 uM
Description: Percent displacement of [3H]GABA at Gamma-aminobutyric acid receptor of rat brain membranes at 0.01 uM

[2] = molecular target: T1, GABA-A receptor; anion channel (Rattus norvegicus); experiment: Percent displacement of [3H]GABA at Gamma-aminobutyric acid receptor of rat brain membranes at 100 uM; assay type: cell membranes; details: Membrane
[3] = molecular target: GABA transporter (Rattus norvegicus) (UniProt P31647+P23978+P31646+P48056); experiment: Percent inhibition of high affinity [3H]GABA uptake into rat brain synaptosomes at 100 uM; assay type: functional, subcellular
Chain of GABA transporter (Rattus norvegicus) (P31646 whole entry, looked up): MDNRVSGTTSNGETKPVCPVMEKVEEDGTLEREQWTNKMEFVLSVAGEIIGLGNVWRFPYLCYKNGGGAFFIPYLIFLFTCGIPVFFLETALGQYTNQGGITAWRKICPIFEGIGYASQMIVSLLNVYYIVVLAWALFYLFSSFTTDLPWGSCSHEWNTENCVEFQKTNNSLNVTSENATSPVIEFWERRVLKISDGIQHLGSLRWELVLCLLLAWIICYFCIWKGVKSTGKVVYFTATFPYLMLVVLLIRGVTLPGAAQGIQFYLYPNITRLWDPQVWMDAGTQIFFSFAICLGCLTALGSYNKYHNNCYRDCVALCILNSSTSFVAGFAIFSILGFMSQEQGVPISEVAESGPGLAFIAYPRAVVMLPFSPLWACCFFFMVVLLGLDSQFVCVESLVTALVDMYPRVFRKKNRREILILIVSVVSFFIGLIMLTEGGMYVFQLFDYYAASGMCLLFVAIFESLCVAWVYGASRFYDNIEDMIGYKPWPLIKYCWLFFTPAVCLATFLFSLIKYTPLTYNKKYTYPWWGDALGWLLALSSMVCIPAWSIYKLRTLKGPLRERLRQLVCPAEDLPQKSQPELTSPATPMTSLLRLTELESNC
Chain of GABA transporter (Rattus norvegicus) (P31647 whole entry, looked up): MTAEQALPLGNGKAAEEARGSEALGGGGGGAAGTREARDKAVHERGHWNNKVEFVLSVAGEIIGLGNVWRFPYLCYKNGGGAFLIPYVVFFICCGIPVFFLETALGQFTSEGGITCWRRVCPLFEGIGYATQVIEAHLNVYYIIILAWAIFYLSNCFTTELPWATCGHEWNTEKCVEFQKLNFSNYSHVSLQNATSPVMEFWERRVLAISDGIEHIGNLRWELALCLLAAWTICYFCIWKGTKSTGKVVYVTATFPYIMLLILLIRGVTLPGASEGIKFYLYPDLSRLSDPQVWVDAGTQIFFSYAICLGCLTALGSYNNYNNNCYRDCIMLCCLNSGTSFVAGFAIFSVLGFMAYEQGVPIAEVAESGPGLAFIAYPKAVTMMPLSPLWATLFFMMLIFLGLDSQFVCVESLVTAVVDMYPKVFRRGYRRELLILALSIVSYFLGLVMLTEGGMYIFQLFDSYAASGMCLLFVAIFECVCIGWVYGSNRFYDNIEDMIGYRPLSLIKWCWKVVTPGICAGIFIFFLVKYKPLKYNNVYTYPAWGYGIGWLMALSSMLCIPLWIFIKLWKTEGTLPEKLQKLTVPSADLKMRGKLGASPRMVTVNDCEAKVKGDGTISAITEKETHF
Chain of GABA transporter (Rattus norvegicus) (P48056 whole entry, looked up): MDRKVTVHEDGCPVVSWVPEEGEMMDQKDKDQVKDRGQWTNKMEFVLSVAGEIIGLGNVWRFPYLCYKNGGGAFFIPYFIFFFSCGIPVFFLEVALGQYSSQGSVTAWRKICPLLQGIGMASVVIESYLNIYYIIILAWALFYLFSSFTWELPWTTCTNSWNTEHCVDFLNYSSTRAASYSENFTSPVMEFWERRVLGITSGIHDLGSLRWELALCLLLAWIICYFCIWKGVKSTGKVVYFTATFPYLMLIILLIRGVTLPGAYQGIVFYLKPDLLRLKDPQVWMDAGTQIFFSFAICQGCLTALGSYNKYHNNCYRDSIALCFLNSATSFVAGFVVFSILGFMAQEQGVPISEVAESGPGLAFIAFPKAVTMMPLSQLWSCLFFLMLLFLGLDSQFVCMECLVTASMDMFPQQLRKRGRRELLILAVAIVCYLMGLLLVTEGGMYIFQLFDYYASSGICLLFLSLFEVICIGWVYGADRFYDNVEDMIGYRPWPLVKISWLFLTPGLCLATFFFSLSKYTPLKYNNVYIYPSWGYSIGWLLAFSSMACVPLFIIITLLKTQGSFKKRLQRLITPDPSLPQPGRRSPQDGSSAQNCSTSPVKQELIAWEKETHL

SMILES | Displacement [1] | Displacement [2] | inhibition [3]
NCCCC(=O)O | 48% |  | 
O=C(O)C1CCCC2NCCCC21 (stereo in doubt) |  | < 5% | < 1%
O=C(O)C1CCCC2NCCCC21 (cis isomer) |  | 17% | 20%
NCc1cc(O)no1 | 86% |  | 
